Activity calls are given as the source filed them.
Tests used:
[1] = microbe, parasite or virus in culture; format: functional; details: Mycobacterium tuberculosis
Beta-galactosidase = Beta-galactosidase (Escherichia coli, UniProt Q8VNN2); test: Dose response counterscreen for EBI2 assay utilizing the enzyme, b-galactosidase.; format: functional
[2] = target: T1, High affinity choline transporter 1 (Homo sapiens, UniProt Q9GZV3); test: human choline transporter blockers, potency – cell-based, 5-point CRC, membrane potential dye, dose response (AID 504840); format: functional
T1 sequence (Q9GZV3 whole entry): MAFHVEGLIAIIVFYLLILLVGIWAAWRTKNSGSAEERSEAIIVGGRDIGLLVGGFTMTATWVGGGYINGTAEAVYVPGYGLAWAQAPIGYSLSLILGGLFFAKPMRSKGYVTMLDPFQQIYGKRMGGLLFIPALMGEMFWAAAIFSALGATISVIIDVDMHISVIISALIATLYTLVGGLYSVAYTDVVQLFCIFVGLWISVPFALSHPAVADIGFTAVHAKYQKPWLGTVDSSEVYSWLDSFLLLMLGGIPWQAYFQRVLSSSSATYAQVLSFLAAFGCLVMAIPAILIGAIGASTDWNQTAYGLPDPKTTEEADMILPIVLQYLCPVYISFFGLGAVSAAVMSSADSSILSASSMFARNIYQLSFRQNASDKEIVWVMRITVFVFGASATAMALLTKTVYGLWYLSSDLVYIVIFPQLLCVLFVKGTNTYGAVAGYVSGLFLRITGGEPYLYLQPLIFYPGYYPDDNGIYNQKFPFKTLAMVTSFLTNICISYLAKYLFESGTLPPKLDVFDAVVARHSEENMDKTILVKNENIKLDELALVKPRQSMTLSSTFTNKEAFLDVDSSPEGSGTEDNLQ

[3] = target: 26S proteasome non-ATPase regulatory subunit 14 (Homo sapiens, UniProt O00487); test: inhibition of proteasome subunit RPN11 – biochemical, fluorescence polarization, uHTS hits, confirmation (AID 602368); format: functional
Sequence of 26S proteasome non-ATPase regulatory subunit 14 (O00487 whole entry): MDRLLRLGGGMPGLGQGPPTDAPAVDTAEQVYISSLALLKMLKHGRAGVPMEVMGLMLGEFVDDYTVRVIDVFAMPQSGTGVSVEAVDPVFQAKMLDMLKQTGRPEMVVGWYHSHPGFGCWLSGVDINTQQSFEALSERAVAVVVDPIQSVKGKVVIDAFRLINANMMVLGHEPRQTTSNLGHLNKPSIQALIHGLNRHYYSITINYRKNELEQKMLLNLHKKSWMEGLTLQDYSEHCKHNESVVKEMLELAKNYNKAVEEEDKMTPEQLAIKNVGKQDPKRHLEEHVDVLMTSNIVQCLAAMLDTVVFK

[4] = target: 72 kDa type IV collagenase (Homo sapiens, UniProt P08253); test: Dose Response validation of uHTS RPN11 inhibitor hits using a MMP-2 Fluorescence assay.; format: functional
Sequence of 72 kDa type IV collagenase (P08253 whole entry): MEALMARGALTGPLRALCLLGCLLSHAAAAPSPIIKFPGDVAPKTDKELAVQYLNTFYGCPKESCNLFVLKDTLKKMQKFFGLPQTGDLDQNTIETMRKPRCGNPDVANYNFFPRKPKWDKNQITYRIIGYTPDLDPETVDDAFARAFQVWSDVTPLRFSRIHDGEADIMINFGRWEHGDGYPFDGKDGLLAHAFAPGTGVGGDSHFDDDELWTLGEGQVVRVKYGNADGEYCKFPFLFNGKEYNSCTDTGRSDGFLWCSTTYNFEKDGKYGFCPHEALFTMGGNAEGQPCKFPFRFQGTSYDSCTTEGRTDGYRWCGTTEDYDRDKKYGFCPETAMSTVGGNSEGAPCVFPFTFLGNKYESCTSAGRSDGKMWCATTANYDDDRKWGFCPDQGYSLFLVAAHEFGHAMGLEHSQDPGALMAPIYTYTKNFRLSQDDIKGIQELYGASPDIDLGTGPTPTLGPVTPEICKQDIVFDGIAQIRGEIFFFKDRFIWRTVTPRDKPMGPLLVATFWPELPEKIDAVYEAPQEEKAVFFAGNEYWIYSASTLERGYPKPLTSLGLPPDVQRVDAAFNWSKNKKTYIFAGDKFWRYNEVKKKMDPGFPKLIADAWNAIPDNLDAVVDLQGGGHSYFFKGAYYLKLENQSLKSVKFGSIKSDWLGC

Prothrombin = Prothrombin (Bos taurus, UniProt P00735); test: thrombin protease inhibitors – biochemical, fluorescence polarization, uHTS hits, dose response (AID 602369); format: functional
[5] = intracellular Trypanosoma cruzi inhibitors in host cells – cell-based, plate reader, cherry-pick samples, set 3, dose response (AID 651818); format: functional;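 also: compounds incubated with infected cells for about four days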
[6] = blockers of HIV-1 envelope-mediated cell-cell fusion – cherry-pick, dose response (AID 652057); format: functional, cell-based
[7] = blockers of HIV-1 ZM109 envelope-driven cell-cell fusion – HeLa effector, CEM target cells, luciferase, cherry-pick, dose response (AID 652058); format: functional, cell-based;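 also: luciferase signal from HIV-1 Env mediated cell-cell fusion of effector and target cells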
[8] = HIV-1 AD8 envelope cell-cell fusion blockers – cherry-pick, dose response (AID 652062); format: functional, cell-based;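 also: luciferase signal from cell-cell fusion driven by HIV-1 clade B AD8 Env; potency is for inhibitors of fusion seen as a drop in luminescence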
[9] = target: Induced myeloid leukemia cell differentiation protein Mcl-1 (Homo sapiens, UniProt Q07820); format: functional
Sequence of Induced myeloid leukemia cell differentiation protein Mcl-1 (Q07820 whole entry): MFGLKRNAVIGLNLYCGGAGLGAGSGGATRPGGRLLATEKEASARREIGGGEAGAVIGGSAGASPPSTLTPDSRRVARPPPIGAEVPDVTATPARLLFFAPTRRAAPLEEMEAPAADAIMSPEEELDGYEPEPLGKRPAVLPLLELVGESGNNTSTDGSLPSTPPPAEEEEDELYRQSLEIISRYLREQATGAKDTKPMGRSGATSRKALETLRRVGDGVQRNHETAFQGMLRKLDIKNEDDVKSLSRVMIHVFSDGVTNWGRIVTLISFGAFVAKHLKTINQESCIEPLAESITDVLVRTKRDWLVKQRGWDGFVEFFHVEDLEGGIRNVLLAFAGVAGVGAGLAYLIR

[10] = target: T2, Small ubiquitin-related modifier 1 (Homo sapiens, UniProt P63165); test: SUMO1 protein interaction blockers, potency – biochemical, fluorescence polarization, uHTS hits, dose response (AID 624382); format: functional; details: read-out: IC50_Mean
T2 sequence (P63165 whole entry): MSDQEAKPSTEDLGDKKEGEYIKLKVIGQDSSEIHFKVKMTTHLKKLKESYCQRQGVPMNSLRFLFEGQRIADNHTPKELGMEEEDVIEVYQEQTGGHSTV

[11] = target: T2, Small ubiquitin-related modifier 1; test: SUMO1 protein-protein binding blockers, potency – biochemical, FRET, dose response (AID 624383); format: functional; details: read-out: IC50_Mean
Nonstructural protein 1 = Nonstructural protein 1 (Influenza A virus, UniProt Q194T2); format: functional, Influenza A virus (A/California/07/2009(H1N1))
Sequence of Nonstructural protein 1 (Q194T2 whole entry): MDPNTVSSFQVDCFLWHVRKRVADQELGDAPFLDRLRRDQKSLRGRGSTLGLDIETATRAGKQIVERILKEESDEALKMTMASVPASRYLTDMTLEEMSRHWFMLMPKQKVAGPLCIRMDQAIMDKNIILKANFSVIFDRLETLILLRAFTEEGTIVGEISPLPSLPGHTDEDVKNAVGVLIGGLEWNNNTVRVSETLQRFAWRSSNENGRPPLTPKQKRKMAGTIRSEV

[12] = viability loss in HeLa cells – cytotoxicity control for MgcRacGAP inhibitor project, dose response (AID 624300); format: functional
[13] = target: T3, Rac GTPase-activating protein 1 (Homo sapiens, UniProt Q9H0H5); test: blockers of MgcRacGAP-driven Rac1 GTP hydrolysis – biochemical, ADP Hunter fluorescence, primary and confirmatory, confirmation (AID 624330); format: functional
T3 sequence (Q9H0H5 whole entry): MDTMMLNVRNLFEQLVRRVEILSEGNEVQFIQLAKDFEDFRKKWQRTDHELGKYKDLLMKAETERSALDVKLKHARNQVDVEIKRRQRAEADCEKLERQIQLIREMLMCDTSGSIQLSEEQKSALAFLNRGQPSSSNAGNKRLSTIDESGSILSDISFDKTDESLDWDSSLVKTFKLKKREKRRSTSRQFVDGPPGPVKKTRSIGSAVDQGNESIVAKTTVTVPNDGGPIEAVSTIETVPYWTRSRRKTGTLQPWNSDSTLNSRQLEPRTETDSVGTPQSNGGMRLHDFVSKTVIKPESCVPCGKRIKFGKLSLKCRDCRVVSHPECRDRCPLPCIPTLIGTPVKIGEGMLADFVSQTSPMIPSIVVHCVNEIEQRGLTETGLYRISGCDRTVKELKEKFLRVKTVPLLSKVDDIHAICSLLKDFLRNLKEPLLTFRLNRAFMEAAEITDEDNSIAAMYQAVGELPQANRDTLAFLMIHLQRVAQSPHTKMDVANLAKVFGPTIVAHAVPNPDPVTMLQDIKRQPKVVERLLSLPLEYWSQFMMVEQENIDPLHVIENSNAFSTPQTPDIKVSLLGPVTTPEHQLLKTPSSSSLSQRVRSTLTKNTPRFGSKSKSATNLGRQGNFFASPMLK

[14] = target: T4, DNA repair protein RAD52 homolog (Homo sapiens, UniProt P43351); format: functional, biochemical
T4 sequence (P43351 whole entry): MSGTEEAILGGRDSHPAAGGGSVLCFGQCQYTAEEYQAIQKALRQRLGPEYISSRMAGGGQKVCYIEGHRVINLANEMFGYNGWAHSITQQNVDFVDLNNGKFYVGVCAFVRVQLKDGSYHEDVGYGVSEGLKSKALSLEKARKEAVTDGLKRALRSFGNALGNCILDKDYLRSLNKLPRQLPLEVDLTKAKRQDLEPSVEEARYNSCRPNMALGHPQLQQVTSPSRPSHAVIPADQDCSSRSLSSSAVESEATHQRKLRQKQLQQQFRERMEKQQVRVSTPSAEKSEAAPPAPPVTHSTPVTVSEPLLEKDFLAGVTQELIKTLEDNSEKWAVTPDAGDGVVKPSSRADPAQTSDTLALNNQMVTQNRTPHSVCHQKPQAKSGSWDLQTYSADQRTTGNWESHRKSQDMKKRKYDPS

Sequence of Beta-galactosidase (Q8VNN2 whole entry): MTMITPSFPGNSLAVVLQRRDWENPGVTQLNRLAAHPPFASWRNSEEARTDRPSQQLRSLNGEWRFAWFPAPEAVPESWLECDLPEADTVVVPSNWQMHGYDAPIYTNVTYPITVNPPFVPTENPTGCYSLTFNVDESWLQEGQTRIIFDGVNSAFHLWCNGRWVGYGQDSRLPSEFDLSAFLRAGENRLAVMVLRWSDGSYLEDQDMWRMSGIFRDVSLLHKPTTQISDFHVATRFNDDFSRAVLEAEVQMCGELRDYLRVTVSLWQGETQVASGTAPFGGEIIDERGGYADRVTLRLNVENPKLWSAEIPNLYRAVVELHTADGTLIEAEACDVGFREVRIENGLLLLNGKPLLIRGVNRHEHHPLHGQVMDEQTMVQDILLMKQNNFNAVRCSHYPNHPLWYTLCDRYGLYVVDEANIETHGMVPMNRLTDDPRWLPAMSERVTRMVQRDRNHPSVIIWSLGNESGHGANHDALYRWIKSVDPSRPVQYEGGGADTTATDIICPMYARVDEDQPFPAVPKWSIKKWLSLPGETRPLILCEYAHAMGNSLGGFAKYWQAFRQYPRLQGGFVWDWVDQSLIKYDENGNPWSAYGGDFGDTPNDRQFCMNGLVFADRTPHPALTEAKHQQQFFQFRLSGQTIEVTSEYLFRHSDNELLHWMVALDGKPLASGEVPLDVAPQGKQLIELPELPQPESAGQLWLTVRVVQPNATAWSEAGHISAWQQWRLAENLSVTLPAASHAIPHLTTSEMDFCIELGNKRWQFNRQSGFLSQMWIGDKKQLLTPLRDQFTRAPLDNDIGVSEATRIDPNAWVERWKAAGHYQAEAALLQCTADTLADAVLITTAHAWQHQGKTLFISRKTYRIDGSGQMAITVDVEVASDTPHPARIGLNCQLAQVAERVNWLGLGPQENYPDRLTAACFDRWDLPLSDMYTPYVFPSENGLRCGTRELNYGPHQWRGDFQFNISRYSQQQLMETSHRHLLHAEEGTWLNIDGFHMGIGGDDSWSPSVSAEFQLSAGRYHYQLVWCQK

O=C(/C=C/c1ccc(Cl)cc1)N1CCN(c2ccc(Cl)cc2[N+](=O)[O-])CC1
CC50 [1]: > 40 µM (active) | IC50 (Beta-galactosidase): > 80 µM (inactive)

Cc1ccc(S(=O)(=O)CCC(=O)OC(C)C(=O)N2CCc3ccccc32)cc1 (configuration not stated)
IC50 [2]: 12.6 µM (active)

CC1CCCC(C)N1CCCNC(=O)CN1C(=O)c2cccnc2Oc2ccc(Cl)cc21 (configuration not stated)
IC50 [2]: 13.8 µM (active)

Cc1cc(C)c(S(=O)(=O)N2CCN(C(=O)c3ccc(-n4nc(C)c(Cl)c4C)cc3)CC2)c(C)c1
IC50 (Beta-galactosidase): > 80 µM (inactive)

COc1ccc(C=C2SC(=S)N(CCCC(=O)Nc3ccc(C(=O)O)c(O)c3)C2=O)cc1OC
IC50 [3]: 26.2 µM (active) | IC50 [4]: > 100 µM (inactive) | IC50 (Prothrombin): 35.3 µM (active)

Cc1ccc(S(=O)(=O)Nc2ccc3c(c2)C(=O)N([C@H](C)CO)C[C@H](C)[C@H](CN(C)S(=O)(=O)c2ccc(Cl)cc2)O3)cc1
AC50 [5]: 4.35 µM (active)

C[C@@H]1CN([C@@H](C)CO)C(=O)Cc2cc(NC(=O)Nc3ccc(C(F)(F)F)cc3)ccc2O[C@@H]1CN(C)S(=O)(=O)c1ccc(F)cc1
AC50 [5]: 6.4 µM (active)

CC(=O)N1CCOc2ccc(S(=O)(=O)N3CCC(C(=O)NCc4ccc(Cl)cc4)CC3)cc21
IC50 (Beta-galactosidase): > 80 µM (inactive)

C[C@@H]1CN([C@H](C)CO)C(=O)c2cccc(NC(=O)CCCCCC(=O)Nc3ccccc3N)c2O[C@@H]1CN(C)Cc1ccc(C(F)(F)F)cc1
AC50 [5]: 2.34 µM (active)

COc1ccccc1CNC(=O)C[C@H]1C[C@@H]2c3cc(NS(=O)(=O)c4ccc(F)cc4)ccc3O[C@@H]2[C@H](CO)O1
AC50 [6]: < 0.26 µM (active) | AC50 [7]: < 0.26 µM (active) | AC50 [8]: < 0.26 µM (active)

C[C@@H]1CN([C@@H](C)CO)S(=O)(=O)c2ccc(C3=CCCCC3)cc2O[C@@H]1CN(C)S(=O)(=O)c1ccc(F)cc1
AC50 [6]: 3.34 µM (active) | AC50 [7]: 1.35 µM (active) | AC50 [8]: 3.53 µM (active)

C[C@H]1CN([C@@H](C)CO)S(=O)(=O)c2ccc(-c3cccc(C#N)c3)cc2O[C@H]1CN(C)Cc1cccc(F)c1
AC50 [6]: 45.7 µM (active) | AC50 [7]: 43.1 µM (active)

O=c1c(-c2c(O)cc(O)c3c(=O)cc(-c4ccc(O)cc4)oc23)c(-c2ccc(O)cc2)oc2cc(O)cc(O)c12
IC50 [9]: 2.73 µM (not active) | IC50 [10]: > 66.6 µM (inactive) | IC50 [11]: 9.2 µM (active)

Cc1ccc(NCCN(C)C)c2c(=O)c3cc(O)ccc3sc12
IC50 (Nonstructural protein 1): 21.7 µM (active) | CC50 [12]: 27.7 µM (active) | IC50 [13]: 24 µM (active) | AC50 [14]: 0.32 µM (active)

From ChEMBL document CHEMBL1201862, “PubChem BioAssay data set” (2004)
